“And” between values parts separate entries of the source, which are not always exact repeats. Equal values may be shown once. “Also recorded” adds a separate entry of the source.
Experiments:
pig liver esterase = assay: Pig liver esterase hydrolysis studies; format: in vitro ADME; conditions: 1 mg/mL in 0.02 M Na2HPO4, 200 units esterase per mL, 37° C., followed by TLC
Method: Thymidine and phosphoramidate analogs were dissolved in 0.02 M Na2HPO4 at a concentration of 1 mg/mL and 200 units of pig liver esterase per mL solutions (Sigma, St. Louis, Mo.) were added. The mixtures were stirred and maintained at 37° C. through out the course of the experiment. The rate of hydrolysis was followed by thin layer chromatography (TLC) from reaction mixture samples collected at selected intervals. For TLC monitoring, CH2Cl2:MeOH (4:1) and i-PrOH:NH4OH:H2O (7:1:2) mobile phases were used. At the completion of hydrolysis, within 30 minutes, samples were run on a HPLC system.

Renca cells [1] = assay: DNA incorporation studies (PCA acid extraction) in Renca cells; format: cell-based, mouse; conditions: 2 hours
Method: (§1) Renca, a mouse renal carcinoma cell line used for these studies, was a gift from Dr. G. Gali Hillman, Wayne State University. Cells were cultured in RPMI-1640 medium containing L-glutamine (Gibco) supplemented with 10% (v/v) fetal bovine serum (FBS), 100 U/mL penicillin, and 0.1 mg/mL streptomycin. Cells were cultured at 37° C. in a humidified incubator with a gas phase of 95% air and 5% CO2.
Two days after seeding 1×10^6 cells in 100×20 mm culture dishes, culture medium was replaced with 1 mL medium containing either 1 μCi/mL of [H-3] FAU or [H-3] FAU-PA. Cells were incubated in a humidified incubator for two hours at 37° C. in an atmosphere of 5% CO2 and 95% air. At the end of the incubation period, radioactive medium was removed and cells were washed three times with ice cold PBS. Then, cells were trypsinized, centrifuged and rewashed three times with ice cold PBS. Cells were lysed with 1 mL of 1M ice-cold perchloric acid solution. The cell lysates were vortexed and centrifuged at 14000 g for 15 minutes. The supernatants were removed, and the pellets were rinsed twice with 1 mL PCA. The acid insoluble fractions were resuspended in 200 μl of Soluene-350. All the acid soluble fractions or supernatants and the acid insoluble fractions were mixed with 5 mL of Ultima Gold scintillation cocktail and counted for 5 minutes on a liquid scintillation counter after an overnight chilling. […]

CEM cells = assay: Growth inhibition, CEM cells; format: cell-based, human; conditions: 72 hours, cell counting
Method: (§2) The cell lines CEM (T lymphoblastoid cells derived from a human peripheral blood), MOLT-4 (derived from a human acute lymphoblasticleukemia), RAJI (derived from a human Burkitt lymphoma), U-937 (derived from a human histocytic lymphoma), and K-562 (derived from a human chronic myelogenous leukemia) were used to measure the cytotoxicity, as assessed by growth inhibition potential. The cell lines were purchased from the American Type Culture Collection (Vienna, Va.). The cells were grown and maintained as a suspension culture in a RPMI 1640 preparation containing L-glutamine (Biofluids, Rockville, Md.) and 10% (v/v) heat-inactivated fetal calf serum (Invitrogen, Chicago, Ill.); a penicillin-streptomycin solution (Sigma Chemical Co., St. Louis, Mo.) was added to achieve a final concentration of 100 units/mL, and 100 μg/mL respectively. Cells were maintained at 37° C. in a humidified 5% CO2 atmosphere and were passed every 72-96 h to maintain cell densities of approximately 30,000 to 40,000 cells/mL. Under these conditions, the doubling times for CEM cells, MOLT-4 cells, RAJI cells, U-937 cells, and K-562 cells were 21-22 hours.
(§3) FAU and FAUPA were dissolved in deionized water and sterilized by passing through a Millex-GV, 0.22 μm filter, Millipore, Bedford, Mass.
(§4) All cell lines were resuspended in fresh media at 3000 to 3500 cells/mL. […]

Renca cells [2] = assay: Tracer uptake studies in Renca cells; format: cell-based, mouse; conditions: 2 hours, 1 μCi/mL [H-3] tracer
Method: as §1
Tracer uptake studies were performed using [H-3]FAU (318.2 GBq/mmol, >99% radiochemical purity), and [H-3]FAU-PA (9.25 GBq/mmol, >99% radiochemical purity). Radiochemicals were obtained from Moravek Biochemicals (Brea, Calif.).
Renca cells were seeded at 2×10^5 cells/mL in 6 well plates. After 48 hours, when cells were 50-60% confluent, culture medium was replaced with 1 mL medium containing either 1 μCi/mL of [H-3]FAU or [H-3]FAU-PA. Cells were incubated in a humidified incubator for two hours at 37° C. in an atmosphere of 5% CO2 and 95% air. At the end of the incubation period, radioactive medium was removed, and cells were rinsed three times with ice cold phosphate buffered saline (PBS). Then, cells were trypsinized, centrifuged at 2000 g for 5 minutes and rewashed three times with ice cold PBS. […] All the supernatants and pellet samples were mixed with 5 mL of Ultima Gold scintillation cocktail and counted for 5 minutes in a liquid scintillation counter. […]

RAJI cells = assay: Growth inhibition, RAJI cells; format: cell-based, human; conditions: 72 hours; for growth inhibition (in words): 3-1000 μM
Method: as §2, §3
(§5) All cell lines were resuspended in fresh media at 3000 to 3500 cells/mL. To each cell suspension final volume 0.2 mL, was added to achieve 0 to 1000 μM concentration of either FAU or FAU-PA. Control experiments had appropriate amounts of sterile distilled water instead of the drug.

K-562 cells = assay: Growth inhibition, K-562 cells; format: cell-based, human; conditions: 72 hours; for growth inhibition (in words): 3-1000 μM
Method: as §2, §3, §5

U-937 cells = assay: Growth inhibition, U-937 cells; format: cell-based, human; conditions: 72 hours
Method: as §2, §3, §4

MOLT-4 cells = assay: Growth inhibition, MOLT-4 cells; format: cell-based, human
Method: as §2, §3, §4

[3] = molecular target: T1, mammalian cytosolic thymidine kinase (TK1) (Homo sapiens, UniProt P04183); conditions: relative to thymidine or FMAU (Sun et al., 2003); cited from earlier work
T1 sequence (P04183 1-234): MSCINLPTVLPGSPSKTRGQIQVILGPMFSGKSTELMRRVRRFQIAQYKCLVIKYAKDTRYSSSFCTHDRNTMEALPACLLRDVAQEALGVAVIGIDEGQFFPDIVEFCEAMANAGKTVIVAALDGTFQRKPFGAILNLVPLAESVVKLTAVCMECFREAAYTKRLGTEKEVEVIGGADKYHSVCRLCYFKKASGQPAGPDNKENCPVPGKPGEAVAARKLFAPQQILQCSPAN

Row | Structure (SMILES) | time for hydrolysis by pig liver esterase (pig liver esterase) | share of total accumulated activity found in the acid insoluble fraction (Renca cells [1]) | IC50 (CEM cells; Homo sapiens, CCRF-CEM) | intracellular accumulation of activity, FAU-PA relative to FAU (Renca cells [2]) | intracellular accumulation of activity, FAU-PA relative to FAU (Renca cells [2]; listed as [H-3]FAU-PA) | growth inhibition (in words) (RAJI cells) | IC50 (RAJI cells; Homo sapiens, cell counting) | IC50 (K-562 cells; Homo sapiens, K562, K-562 cells (printed K-567), cell counting) | growth inhibition (in words) (K-562 cells; K-562 cells) | IC50 (U-937 cells; Homo sapiens, cell counting) | IC50 (MOLT-4 cells; Homo sapiens, MOLT-4, 72 hours, cell counting) | IC50 (CEM cells) | growth inhibition at 1 mM (in words) (RAJI cells; 1 mM, compared with CEM) | substrate quality for thymidine kinase (in words) [3] | growth inhibition at 1 mM (K-562 cells; K-562 cells, 1 mM) | growth inhibition at 1 mM (in words) (U-937 cells; 1 mM, compared with CEM) | growth inhibition at 1 mM (in words) (MOLT-4 cells; 1 mM, 72 hours, compared with CEM)
1 | COC(=O)C(C)NP(=O)(OCC1OC(n2cc(C)c(=O)[nH]c2=O)C[C@H]1O)Oc1ccccc1 (stereo partly drawn) [thymidine-PA, Methyl thymidine-5′-phenylphosphoryl-P→N-alaninate, reference compound] | 15 to 30 min | – | – | – | – | – | – | – | – | – | – | – | – | – | – | – | –
2 | COC(=O)C(C)NP(=O)(OCC1OC(n2ccc(=O)[nH]c2=O)C(F)C1O)Oc1ccccc1 [FAU-PA, 1-(2′-deoxy-2′-fluoro-β-D-arabinofuranosyl)-uracil-5′-(phenylmethoxyalaninyl phosphate] | ≤ 15 min | 72% | < 60 µM | > 17 fold and 17 fold | 17 fold | little growth inhibition | > 100 µM | > 100 µM | little growth inhibition | < 60 µM | < 60 µM | – | – | – | – | – | –
3 | O=c1ccn([C@@H]2O[C@H](CO)[C@@H](O)[C@@H]2F)c(=O)[nH]1 [FAU, 1-(2′-deoxy-2′-fluoro-β-D-arabinofuranosyl)-uracil, reference compound] | – | 80% | – | – | – | little growth inhibition | – | – | little growth inhibition | – | – | < 100 µM | somewhat less inhibited | poor substrate; also recorded: very poor substrate | 40% | somewhat less inhibited | somewhat less inhibited
